Experimental data from the NIST ThermoML archive (doi:10.1021/je800787t).
Numbers after ± are expanded uncertainties.

What was measured:
[1] = refractive index (other wavelength) (dimensionless); conditions: 101.33 kPa, Liquid, Wavelength=632.8 nm, Standard Abbe refractometry
[2] = refractive index (other wavelength) (dimensionless); xn = mol fraction of the nth substance listed; conditions: 101.3 kPa, Liquid, Wavelength=632.8 nm, Standard Abbe refractometry

CCCCCCCCCC [decane]
[1]
Conditions	refractive index
278.87 K	1.4169 ± 0.0006
280.1 K	1.4163 ± 0.0006
281.3 K	1.4158 ± 0.0006
282.48 K	1.4153 ± 0.0006
283.62 K	1.4148 ± 0.0006
284.82 K	1.4142 ± 0.0006
286.06 K	1.4137 ± 0.0006
287.23 K	1.4132 ± 0.0006

CCCCCCCCCC [decane] + COC(=O)OC
[2], 287.95 K
Conditions	refractive index
x2 = 0.101	1.4095 ± 0.0008
x2 = 0.204	1.4062 ± 0.0008
x2 = 0.3	1.403 ± 0.0008
x2 = 0.401	1.3995 ± 0.0008
x2 = 0.501	1.3958 ± 0.0008
x2 = 0.605	1.3917 ± 0.0008
x2 = 0.686	1.388 ± 0.0008
x2 = 0.8	1.3821 ± 0.0008
x2 = 0.903	1.3762 ± 0.0008

COC(=O)OC [dimethyl carbonate]
[1]
Conditions	refractive index
277.34 K	1.3749 ± 0.0006
278.7 K	1.3743 ± 0.0006
280.06 K	1.3737 ± 0.0006
281.54 K	1.373 ± 0.0006
282.92 K	1.3724 ± 0.0006
284.24 K	1.3718 ± 0.0006
285.53 K	1.3712 ± 0.0006
286.93 K	1.3706 ± 0.0006
299.64 K	1.3647 ± 0.0006
300.69 K	1.3642 ± 0.0006
301.77 K	1.3637 ± 0.0006
302.82 K	1.3632 ± 0.0006
303.91 K	1.3627 ± 0.0006
304.99 K	1.3622 ± 0.0006
306.04 K	1.3617 ± 0.0006
307.11 K	1.3612 ± 0.0006
308.14 K	1.3607 ± 0.0006

COC(=O)OC [dimethyl carbonate] + CCCCCCCCCCCCCC
Conditions	refractive index
[2], 308.14 K, x1 = 1	1.3632 ± 0.0008

CCCCCCCCCCCCCC [tetradecane]
[1]
Conditions	refractive index
299.64 K	1.4248 ± 0.0006
300.67 K	1.4244 ± 0.0006
301.68 K	1.424 ± 0.0006
302.71 K	1.4235 ± 0.0006
303.75 K	1.4231 ± 0.0006
304.75 K	1.4226 ± 0.0006
305.78 K	1.4222 ± 0.0006
306.86 K	1.4218 ± 0.0006
307.91 K	1.4213 ± 0.0006

CCCCCCCCCCCCCC [tetradecane] + COC(=O)OC
[2], 308.14 K
Conditions	refractive index
x2 = 0	1.4235 ± 0.0008
x2 = 0.1	1.4179 ± 0.0008
x2 = 0.201	1.4145 ± 0.0008
x2 = 0.3	1.4107 ± 0.0008
x2 = 0.399	1.4067 ± 0.0008
x2 = 0.5	1.4019 ± 0.0008
x2 = 0.6	1.3966 ± 0.0008
x2 = 0.708	1.3898 ± 0.0008
x2 = 0.801	1.3826 ± 0.0008
x2 = 0.899	1.3729 ± 0.0008
